The values below come from patent US8193169B2, “(20R)-2α-methyl-19,26,2-trinor-vitamin D analogs” (Wisconsin Alumni Research Foundation, priority 2006, dated 2012).

Assay [1] in a line: Bone calcium mobilization (serum calcium) in vitamin D-deficient rats. Format: in vivo, Sprague-Dawley rats. The note with it: vitamin D-deficient rats on 0.02% Ca diet, FIG. 4. The protocol: (§1) Male, weanling Sprague-Dawley rats were placed on Diet 11 (0.47% Ca) diet+AEK oil for one week followed by Diet 11 (0.02% Ca)+AEK oil for 3 weeks. The rats were then switched to a diet containing 0.47% Ca for one week followed by two weeks on a diet containing 0.02% Ca. Dose administration began during the last week on 0.02% calcium diet. Four consecutive ip doses were given approximately 24 hours apart. Twenty-four hours after the last dose, blood was collected from the severed neck and the concentration of serum calcium determined as a measure of bone calcium mobilization. The first 10 cm of the intestine was also collected for intestinal calcium transport analysis using the everted gut sac method.

Assay [2] relates to HL-60 cells. Description: HL-60 cell differentiation (nitro blue tetrazolium reduction). Format: cell-based, human. The note with it: for EC50: HL-60 cells, differentiation into monocytes, FIG. 2. The protocol: The study drugs were dissolved in ethanol and the concentrations determined using UV spectrophotometry. Serial dilutions were prepared so that a range of drug concentrations could be tested without changing the final concentration of ethanol (≦0.2%) present in the cell cultures.
Human promyelocytic leukemia (HL60) cells were grown in RPMI-1640 medium containing 10% fetal bovine serum. The cells were incubated at 37° C. in the presence of 5% CO2.
HL60 cells were plated at 1.2×10^5 cells/ml. Eighteen hours after plating, cells in duplicate were treated with drug. Four days later, the cells were harvested and a nitro blue tetrazolium reduction assay was performed (Collins et al., 1979; J. Exp. Med. 149:969-974). The percentage of differentiated cells was determined by counting a total of 200 cells and recording the number that contained intracellular black-blue formazan deposits. Verification of differentiation to monocytic cells was determined by measuring phagocytic activity (data not shown).

In assay [3] the test system is 24-hydroxylase (24Ohase) gene promoter. Description: In vitro transcription assay, luciferase reporter in ROS 17/2.8 (bone) cells. The class given is cell-based. The note with it: for EC50: ROS 17/2.8 cells, 24-hydroxylase promoter-luciferase, FIG. 3, read-out: EC50, transcriptional activity in bone cells. The protocol: Transcription activity was measured in ROS 17/2.8 (bone) cells that were stably transfected with a 24-hydroxylase (24Ohase) gene promoter upstream of a luciferase reporter gene (Arbour et al., 1998). Cells were given a range of doses. Sixteen hours after dosing the cells were harvested and luciferase activities were measured using a luminometer.
RLU=relative luciferase units.

Assay [4] is described as follows: Intestinal calcium transport, everted gut sac method, in vitamin D-deficient rats. The class given is in vivo, Sprague-Dawley rats. The conditions noted are these: 35,100 pmol/day ip for 4 consecutive days, FIG. 5. Here is the method: as §1
The target in assay [5] is T1, full-length recombinant rat vitamin D receptor (Rattus norvegicus, UniProt P13053).
T1 sequence (P13053 1-423): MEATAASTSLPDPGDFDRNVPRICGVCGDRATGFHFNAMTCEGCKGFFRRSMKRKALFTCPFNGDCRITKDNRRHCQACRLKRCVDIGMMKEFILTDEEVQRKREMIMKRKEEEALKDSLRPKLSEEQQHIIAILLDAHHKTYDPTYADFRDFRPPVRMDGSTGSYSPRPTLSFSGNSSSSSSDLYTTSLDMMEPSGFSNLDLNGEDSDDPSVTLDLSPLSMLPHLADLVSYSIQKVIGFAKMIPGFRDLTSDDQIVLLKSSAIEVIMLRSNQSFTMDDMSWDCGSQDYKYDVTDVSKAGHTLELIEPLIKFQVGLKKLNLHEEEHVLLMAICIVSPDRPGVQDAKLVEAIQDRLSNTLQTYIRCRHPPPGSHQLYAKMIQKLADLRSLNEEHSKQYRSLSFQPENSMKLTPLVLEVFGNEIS
Description: biochemical.

Assay [6] concerns the target T1, full-length recombinant rat vitamin D receptor. The note with it: compared to 1,25(OH)2D3.
Setting [7] is: compared to 1α,25-dihydroxyvitamin D3.

One may read the EC50 as the concentration that produces a half-maximal response. `C=C1/C(=C\C=C2/CCC[C@]3(C)[C@@H]([C@H](C)CCCC(C)(C)O)CC[C@@H]23)C[C@@H](O)C[C@@H]1O` [1,25(OH)2D3, 1α,25-dihydroxyvitamin D3, reference compound]: the “Bone calcium mobilization activity (serum calcium)” value in assay [1] (780 pmol/day) is “significant activity”. Moreover, in assay [1] (all dosages), the Serum calcium levels result was “increased serum calcium levels at all dosages”. The EC50 stood at 2 nM in assay [2] and 0.3 nM in assay [3].

What is called Ki is the dissociation constant of the complex between target and ligand, obtained from inhibition or displacement. Regarding `CC(CCCCO)C1CCC2C(=CC=C3CC(O)C(C)C(O)C3)CCCC21C` [B-9, (20R)-2α-methyl-19,26,27-trinor-1α,25-dihydroxyvitamin D3], the “Bone calcium mobilization activity (serum calcium)” value in assay [1] (35,100 pmol/day ip for 4 consecutive days) is on record as “did not result in any mobilization of bone calcium”. In addition, the “Intestinal calcium transport activity” value in assay [4] was “did not result in any activity”. In assay [5], the Ki is 1 nM. Further, the “VDR binding potency relative to 1,25(OH)2D3 (times less potent)” value in assay [6] was “about 10 times”. Also, the figures for the EC50 in assay [2] (Homo sapiens) and in assay [3] were 30 nM and 10 nM, respectively. For the same compound, the “HL-60 cell differentiation activity relative to 1α,25-dihydroxyvitamin D3 (times less activity)” value in assay [2] (setting [7]) is reported as about 10 times. Moreover, the “Transcriptional activity in bone cells relative to 1α,25-dihydroxyvitamin D3 (times less)” value in assay [3] (setting [7]) was “about 30 times”.
